Assay results published in patent US20250129087A1, “SALT CRYSTALS” (INTRA-CELLULAR THERAPIES, INC., priority 2022, published 2025).

Test: Aqueous solubility of the salt crystals (shaking in water for 24 hours, LC analysis)
Format: physicochemical
Conditions: appearance of the sample after shaking in water for 24 hours (Slurry or Clear)
Description: (§1) Samples are filtered and diluted (in a mixture of acetonitrile/water (1/1)) for LC analysis. Solubilities are calculated with the use of a calibration line. Furthermore, the pH values of the filtrated solutions are determined using pH indication paper.

SMILES | Appearance
CN1C(=O)c2c(nn(Cc3ccc(-c4cccc(F)n4)cc3)c2Nc2ccccc2)N2C1=N[C@@H]1CCC[C@@H]12.Nc1ccc(C(=O)O)c(O)c1 [Aminosalicylate Salt 1] | Slurry

Test: pH of the filtrated solutions (pH indication paper)
Format: physicochemical
Conditions: pH of the filtrated solution
Description: as §1

SMILES | pH
CCS(=O)(=O)O.CN1C(=O)c2c(nn(Cc3ccc(-c4cccc(F)n4)cc3)c2Nc2ccccc2)N2C1=N[C@@H]1CCC[C@@H]12 [Esylate Salt 1] | 5
CN1C(=O)c2c(nn(Cc3ccc(-c4cccc(F)n4)cc3)c2Nc2ccccc2)N2C1=N[C@@H]1CCC[C@@H]12.O=C(O)C(=O)O [Oxalate Salt 2] | 1
CN1C(=O)c2c(nn(Cc3ccc(-c4cccc(F)n4)cc3)c2Nc2ccccc2)N2C1=N[C@@H]1CCC[C@@H]12.O=S(=O)(O)O [Sulfate Salt 1] | 1
CN1C(=O)c2c(nn(Cc3ccc(-c4cccc(F)n4)cc3)c2Nc2ccccc2)N2C1=N[C@@H]1CCC[C@@H]12.O=C(O)C(O)c1ccccc1 [Mandelate Salt 1] | 2
CN1C(=O)c2c(nn(Cc3ccc(-c4cccc(F)n4)cc3)c2Nc2ccccc2)N2C1=N[C@@H]1CCC[C@@H]12.O=C(O)CCC(=O)O [Succinate Salt 1] | 4
CN1C(=O)c2c(nn(Cc3ccc(-c4cccc(F)n4)cc3)c2Nc2ccccc2)N2C1=N[C@@H]1CCC[C@@H]12.O=C(O)c1ccccc1 [Benzoate Salt 1] | 5
CN1C(=O)c2c(nn(Cc3ccc(-c4cccc(F)n4)cc3)c2Nc2ccccc2)N2C1=N[C@@H]1CCC[C@@H]12.O=C(O)C(O)c1ccccc1 [Mandelate Salt 2] | 4
CN1C(=O)c2c(nn(Cc3ccc(-c4cccc(F)n4)cc3)c2Nc2ccccc2)N2C1=N[C@@H]1CCC[C@@H]12.O=C(O)c1cc(=O)[nH]c(=O)[nH]1.O=C(O)c1cc(=O)[nH]c(=O)[nH]1 [Orotate Salt 1] | 5
CC(O)C(=O)O.CN1C(=O)c2c(nn(Cc3ccc(-c4cccc(F)n4)cc3)c2Nc2ccccc2)N2C1=N[C@@H]1CCC[C@@H]12 [Lactate Salt 1] | 4-5
CN1C(=O)c2c(nn(Cc3ccc(-c4cccc(F)n4)cc3)c2Nc2ccccc2)N2C1=N[C@@H]1CCC[C@@H]12.O=C(O)C(=O)O [Oxalate Salt 1] | 4
CN1C(=O)c2c(nn(Cc3ccc(-c4cccc(F)n4)cc3)c2Nc2ccccc2)N2C1=N[C@@H]1CCC[C@@H]12.Cl [HCl Salt 2] | 4-5
CN1C(=O)c2c(nn(Cc3ccc(-c4cccc(F)n4)cc3)c2Nc2ccccc2)N2C1=N[C@@H]1CCC[C@@H]12.O=C(O)C[C@H](O)C(=O)O [Malate Salt 1] | 4
CN1C(=O)c2c(nn(Cc3ccc(-c4cccc(F)n4)cc3)c2Nc2ccccc2)N2C1=N[C@@H]1CCC[C@@H]12.CS(=O)(=O)O [Mesylate Salt 1] | 5
CCCCCCCC(=O)O.CN1C(=O)c2c(nn(Cc3ccc(-c4cccc(F)n4)cc3)c2Nc2ccccc2)N2C1=N[C@@H]1CCC[C@@H]12 [Caprylate Salt 1] | 5
CCCCCCCCCCCCCCCC(=O)O.CN1C(=O)c2c(nn(Cc3ccc(-c4cccc(F)n4)cc3)c2Nc2ccccc2)N2C1=N[C@@H]1CCC[C@@H]12 [Palmitate Salt 1] | 5-6
CN1C(=O)c2c(nn(Cc3ccc(-c4cccc(F)n4)cc3)c2Nc2ccccc2)N2C1=N[C@@H]1CCC[C@@H]12.O=C(O)c1ccncc1 [Isonicotinate Salt 1] | 5
CN1C(=O)c2c(nn(Cc3ccc(-c4cccc(F)n4)cc3)c2Nc2ccccc2)N2C1=N[C@@H]1CCC[C@@H]12.CN1C(=O)c2c(nn(Cc3ccc(-c4cccc(F)n4)cc3)c2Nc2ccccc2)N2C1=N[C@@H]1CCC[C@@H]12.O=C(O)/C=C/C(=O)O [Fumarate Salt 1] | 2
CN1C(=O)c2c(nn(Cc3ccc(-c4cccc(F)n4)cc3)c2Nc2ccccc2)N2C1=N[C@@H]1CCC[C@@H]12.O=S(=O)(O)c1cccc2c(S(=O)(=O)O)cccc12 [Napadisylate Salt 1] | 1
CN1C(=O)c2c(nn(Cc3ccc(-c4cccc(F)n4)cc3)c2Nc2ccccc2)N2C1=N[C@@H]1CCC[C@@H]12.Nc1ccc(C(=O)O)c(O)c1 [Aminosalicylate Salt 1] | 5
CN1C(=O)c2c(nn(Cc3ccc(-c4cccc(F)n4)cc3)c2Nc2ccccc2)N2C1=N[C@@H]1CCC[C@@H]12.O=C(O)c1ccccc1O [Salicylate Salt 2] | 4-5
CN1C(=O)c2c(nn(Cc3ccc(-c4cccc(F)n4)cc3)c2Nc2ccccc2)N2C1=N[C@@H]1CCC[C@@H]12.O=S(=O)(O)CCS(=O)(=O)O [Edisylate Salt 1] | 1
CN1C(=O)c2c(nn(Cc3ccc(-c4cccc(F)n4)cc3)c2Nc2ccccc2)N2C1=N[C@@H]1CCC[C@@H]12.Cl [HCl Salt 4] | 4
CN1C(=O)c2c(nn(Cc3ccc(-c4cccc(F)n4)cc3)c2Nc2ccccc2)N2C1=N[C@@H]1CCC[C@@H]12.O=C(O)c1ccc2ccccc2c1O [Xinafoate Salt 2] | 7
CN1C(=O)c2c(nn(Cc3ccc(-c4cccc(F)n4)cc3)c2Nc2ccccc2)N2C1=N[C@@H]1CCC[C@@H]12.O=C(O)CCC(=O)C(=O)O [Oxo-glutarate Salt 1] | 3

SMILES | pH
CN1C(=O)c2c(nn(Cc3ccc(-c4cccc(F)n4)cc3)c2Nc2ccccc2)N2C1=N[C@@H]1CCC[C@@H]12.Cc1ccc(S(=O)(=O)O)cc1 [Tosylate Salt 2] | 5
CN1C(=O)c2c(nn(Cc3ccc(-c4cccc(F)n4)cc3)c2Nc2ccccc2)N2C1=N[C@@H]1CCC[C@@H]12.O=P(O)(O)O [Phosphate Salt Control] | 5
CN1C(=O)c2c(nn(Cc3ccc(-c4cccc(F)n4)cc3)c2Nc2ccccc2)N2C1=N[C@@H]1CCC[C@@H]12.O=C(O)c1ccc2ccccc2c1O [Xinafoate Salt 1] | 7
CN1C(=O)c2c(nn(Cc3ccc(-c4cccc(F)n4)cc3)c2Nc2ccccc2)N2C1=N[C@@H]1CCC[C@@H]12.O=C(O)[C@@H](O)[C@H](O)[C@H](O)[C@@H](O)C(=O)O [Galactarate Salt 1] | 5
CN1C(=O)c2c(nn(Cc3ccc(-c4cccc(F)n4)cc3)c2Nc2ccccc2)N2C1=N[C@@H]1CCC[C@@H]12.O=C(O)c1cccnc1 [Nicotinate Salt 1] | 5
CN1C(=O)c2c(nn(Cc3ccc(-c4cccc(F)n4)cc3)c2Nc2ccccc2)N2C1=N[C@@H]1CCC[C@@H]12.O=C(O)c1ccccc1O [Salicylate Salt 1] | 5
CCCCCC(=O)O.CN1C(=O)c2c(nn(Cc3ccc(-c4cccc(F)n4)cc3)c2Nc2ccccc2)N2C1=N[C@@H]1CCC[C@@H]12 [Caproate Salt 1] | 5
CN1C(=O)c2c(nn(Cc3ccc(-c4cccc(F)n4)cc3)c2Nc2ccccc2)N2C1=N[C@@H]1CCC[C@@H]12.O=C(O)CCCCC(=O)O [Adipate Salt 3] | 4-5
CN1C(=O)c2c(nn(Cc3ccc(-c4cccc(F)n4)cc3)c2Nc2ccccc2)N2C1=N[C@@H]1CCC[C@@H]12.O=C(O)c1ccc2ccccc2c1O [Xinafoate Salt 3] | 7
CCCCCCCCCCCC(=O)O.CN1C(=O)c2c(nn(Cc3ccc(-c4cccc(F)n4)cc3)c2Nc2ccccc2)N2C1=N[C@@H]1CCC[C@@H]12 [Laurate Salt 1] | 5
CN1C(=O)c2c(nn(Cc3ccc(-c4cccc(F)n4)cc3)c2Nc2ccccc2)N2C1=N[C@@H]1CCC[C@@H]12.O=S(=O)(O)c1ccccc1 [Besylate Salt 1] | 1
CCC(=O)O.CN1C(=O)c2c(nn(Cc3ccc(-c4cccc(F)n4)cc3)c2Nc2ccccc2)N2C1=N[C@@H]1CCC[C@@H]12 [Propionate Salt 1] | 5
CN1C(=O)c2c(nn(Cc3ccc(-c4cccc(F)n4)cc3)c2Nc2ccccc2)N2C1=N[C@@H]1CCC[C@@H]12.Cl [HCl Salt 3] | 3
CC1(C)C2CCC1(CS(=O)(=O)O)C(=O)C2.CN1C(=O)c2c(nn(Cc3ccc(-c4cccc(F)n4)cc3)c2Nc2ccccc2)N2C1=N[C@@H]1CCC[C@@H]12 [Camsylate Salt 1] | 1
CN1C(=O)c2c(nn(Cc3ccc(-c4cccc(F)n4)cc3)c2Nc2ccccc2)N2C1=N[C@@H]1CCC[C@@H]12.O=C(O)CCCCC(=O)O [Adipate Salt 1] | 4
CN1C(=O)c2c(nn(Cc3ccc(-c4cccc(F)n4)cc3)c2Nc2ccccc2)N2C1=N[C@@H]1CCC[C@@H]12.O=C(O)C(F)(F)F [Trifluoroacetate Salt 1] | 7
CN1C(=O)c2c(nn(Cc3ccc(-c4cccc(F)n4)cc3)c2Nc2ccccc2)N2C1=N[C@@H]1CCC[C@@H]12.CN1C(=O)c2c(nn(Cc3ccc(-c4cccc(F)n4)cc3)c2Nc2ccccc2)N2C1=N[C@@H]1CCC[C@@H]12.O=C(O)CCCCC(=O)O [Adipate Salt 2] | 4-5
CN1C(=O)c2c(nn(Cc3ccc(-c4cccc(F)n4)cc3)c2Nc2ccccc2)N2C1=N[C@@H]1CCC[C@@H]12.Cc1ccc(S(=O)(=O)O)cc1 [Tosylate Salt 1] | 1
CC1(C)C2CCC1(CS(=O)(=O)O)C(=O)C2.CN1C(=O)c2c(nn(Cc3ccc(-c4cccc(F)n4)cc3)c2Nc2ccccc2)N2C1=N[C@@H]1CCC[C@@H]12 [Camsylate Salt 2] | 1
CN1C(=O)c2c(nn(Cc3ccc(-c4cccc(F)n4)cc3)c2Nc2ccccc2)N2C1=N[C@@H]1CCC[C@@H]12.O=C(O)CCC(=O)O [Succinate Salt 2] | 4
CN1C(=O)c2c(nn(Cc3ccc(-c4cccc(F)n4)cc3)c2Nc2ccccc2)N2C1=N[C@@H]1CCC[C@@H]12.Cl [HCl Salt 1] | 4
CN1C(=O)c2c(nn(Cc3ccc(-c4cccc(F)n4)cc3)c2Nc2ccccc2)N2C1=N[C@@H]1CCC[C@@H]12.O=C(O)C(=O)O [Oxalate Salt 3] | 1
CN1C(=O)c2c(nn(Cc3ccc(-c4cccc(F)n4)cc3)c2Nc2ccccc2)N2C1=N[C@@H]1CCC[C@@H]12.O=C(O)C(Cl)Cl [Dichloroacetate Salt 1] | 4-5
CN1C(=O)c2c(nn(Cc3ccc(-c4cccc(F)n4)cc3)c2Nc2ccccc2)N2C1=N[C@@H]1CCC[C@@H]12.O=C(O)C(O)C(O)C(=O)O [Tartrate Salt 1] | 4-5

Same assay, conditions: pH of the filtrated solution, listed as 4-acetamido-benzoate Salt 1

SMILES | pH
CC(=O)Nc1ccc(C(=O)O)cc1.CN1C(=O)c2c(nn(Cc3ccc(-c4cccc(F)n4)cc3)c2Nc2ccccc2)N2C1=N[C@@H]1CCC[C@@H]12 [Acetamido Benzoate Salt 1] | 5

Same assay, conditions: pH of the filtrated solution, listed as 4-acetamido-benzoate Salt 2

SMILES | pH
CC(=O)Nc1ccc(C(=O)O)cc1.CN1C(=O)c2c(nn(Cc3ccc(-c4cccc(F)n4)cc3)c2Nc2ccccc2)N2C1=N[C@@H]1CCC[C@@H]12 [Acetamido Benzoate Salt 2] | 4
